“Also recorded” adds a separate entry of the source. Structures can show the parent of a compound that is named as a salt.
Legend:
[1] = system: pancreatic cancer cell (MIA PaCa-2); assay: colorimetric tetrazolium salt (MTS) viability assay, MIA PaCa-2; conditions: Homo sapiens, MIA PaCa-2, 48 h, read-out: viability of MIA PaCa-2 cells
Source text: (§1) This value is 10-20% more than the chemotherapeutic effect of alexidine dihydrochloride alone.

[2] = system: pancreatic cancer cell (AsPc-1); assay: colorimetric tetrazolium salt (MTS) viability assay, AsPc-1
Source text: as §1

[3] = system: pancreatic cancer cell (Psn-1); assay: colorimetric tetrazolium salt (MTS) viability assay, Psn-1
Source text: as §1

[4] = system: healthy human pancreatic cell (hTert-HPNE); assay: colorimetric tetrazolium salt (MTS) viability assay, hTert-HPNE; format: cell-based; conditions: AD alone, 2.5 μM, 48 hours of incubation
[5] = system: healthy intervertebral disc cell (HNPC); assay: colorimetric tetrazolium salt (MTS) viability assay, HNPC; format: cell-based; conditions: AD alone, 2.5 μM, 48 hours of incubation
[6] = system: pancreatic cancer cells (MIA PaCa-2, AsPc-1 and Psn-1); assay: colorimetric tetrazolium salt (MTS) viability assay, pancreatic cancer cells together; conditions: Pancreatic cancer cell, 48 h, read-out: viability of the pancreatic cancer cells
Source text: as §1

[7] = system: healthy cells (hTert-HPNE, HNPC, hFSSCs, HUVEC); assay: toxicity analysis (MTS viability assay), healthy cells together; format: cell-based
[8] = solubility in dimethylsulfoxide; format: physicochemical; conditions: organic solvent or mixture
Experimental: The chemotherapeutic agent of the present invention comprises a combination of alexidine dihydrochloride and sodium pentaborate pentahydrate and induces apoptosis on pancreatic cancer cells. Alexidine dihydrochloride is a compound having a molecular weight of 581.71 gram/mol and the chemical formula of C26H56N10 ·2HCl and it is dissolved in dimethylsulfoxide of 10 mg/ml or above.

[9] = Experimental: The sodium pentaborate pentahydrate compound was dissolved in the appropriate medium for the cell that was used and filtered to enable sterilization.
[10] = AD alone 2.5 μM, 48-hour incubation, dihydrochloride

CCCCC(CC)CNC(=N)NC(=N)NCCCCCCNC(=N)NC(=N)NCC(CC)CCCC (stereo not shown) [AD, alexidine dihydrochloride]
viability at 2.5 µM [1]: 53%
viability of AsPc-1 cells [2, 10]: 58.3%
viability at 2.5 µM ([2]; Homo sapiens, ASPC1, 48 h, read-out: viability of AsPc-1 cells, AD alone 2.5 μM, 48-hour incubation): 58%
viability of Psn-1 cells [3, 10]: 51.6%
viability at 2.5 µM ([3]; Homo sapiens, PSN1, 48 h, read-out: viability of Psn-1 cells, AD alone 2.5 μM, 48-hour incubation): 45%
effect on healthy pancreas cell (hTert-HPNE) [4]: not affected
effect on healthy intervertebral disc cells (HNPC) [5]: not affected
viability at 2.5 µM [6]: 50%
effect on healthy cells ([7]; AD alone 2.5 μM, 48-hour incubation, hTert-HPNE and HNPC, dihydrochloride): did not harm the healthy cells; also recorded: do not kill the healthy cells
solubility [8]: ≥ 10000 µg/mL

sodium pentaborate pentahydrate [NAB]
average vitality ([7]; NAB alone 1000 μM, incubated for 48 hours, hTert-HPNE, HNPC, hFSSCs, HUVEC): 70%
dissolution in the medium ([9]; concentrations used (100-1000 μM), no additional solvent): dissolved instantly
precipitate formation in the medium ([9]; medium pH 7.4, 72 hours): did not form sodium pentaborate pentahydrate precipitate

— patent US11510943B2, “Chemotherapeutic agent comprising combination of alexidine dihydrochloride and sodium pentaborate pentahydrate” (YEDITEPE UNIVERSITESI, priority 2018, dated 2022)
